Measurements: the supplement of paper PMC10307832

Experiments:
Test in all cases: relative viability (nuclei count vs DMSO), 5 days (fraction); higher = more cells survive
[1] = compound: CCOC(=O)CCNc1cc(N2CCc3ccccc3CC2)nc(-c2ccccn2)n1 [GSK-J4] + COc1cccc2cc(-c3nc([C@H]4CC[C@H](C(=O)O)CC4)n4ncnc(N)c34)[nH]c12 [OSI-027] (partner 0.5 µM)
Procedure, shortened: (§1)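 Relative viability is defined as nuclei in treated wells over nuclei in vehicle wells. Duplicate plates were run and medians reported. Lung cancer cell lines in 1536-well plates were dosed by pin tool one day after seeding, with one drug or with a fixed anchor-drug dose plus five library-drug doses (not always all listed) in √10 steps, and nuclei were counted after 5 days.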

[2] = compound: CCOC(=O)CCNc1cc(N2CCc3ccccc3CC2)nc(-c2ccccn2)n1 [GSK-J4] + C[C@]1(O)C[C@@H](c2nc(-c3ccc4ccc(-c5ccccc5)nc4c3)c3c(N)nccn32)C1 [Linsitinib] (partner 1 µM)
Procedure, shortened: as §1

[3] = compound: CCOC(=O)CCNc1cc(N2CCc3ccccc3CC2)nc(-c2ccccn2)n1 [GSK-J4] + N=C(N)NC(=N)NCCc1ccccc1 [Phenformin] (partner 250 µM)
Procedure, shortened: as §1

[4] = compound: CN1CCC(CC1)OC2=CC(=C(C=C2)NC3=NC=C4C(=N3)N(C(=O)N4C)C5CCCC5)OC [AZ3146] + CCNC(=O)c1noc(-c2cc(C(C)C)c(O)cc2O)c1-c1ccc(CN2CCOCC2)cc1 [Luminespib] (partner 0.01 µM)
Procedure, shortened: as §1

Cell Line | relative viability ([1]; first compound 0.5 µM) | relative viability ([1]; first compound 1.581 µM) | relative viability ([1]; first compound 5 µM) | relative viability ([1]; first compound 15.81 µM) | relative viability ([1]; first compound 50 µM) | relative viability ([2]; first compound 0.5 µM) | relative viability ([2]; first compound 1.581 µM) | relative viability ([2]; first compound 5 µM) | relative viability ([2]; first compound 15.81 µM) | relative viability ([2]; first compound 50 µM) | relative viability ([3]; first compound 0.5 µM) | relative viability ([3]; first compound 1.581 µM) | relative viability ([3]; first compound 5 µM) | relative viability ([3]; first compound 15.81 µM) | relative viability ([3]; first compound 50 µM) | relative viability ([4]; first compound 0.08 µM) | relative viability ([4]; first compound 0.253 µM) | relative viability ([4]; first compound 0.8 µM) | relative viability ([4]; first compound 2.53 µM) | relative viability ([4]; first compound 8 µM)
ABC-1 | 0.533 | 0.442 | 0.441 | 0.357 | 0.336 | 0.788 | 0.632 | 1.07 | 0.802 | 0.378 | 0.232 | 0.259 | 0.245 | 0.217 | 0.201 | 0.331 | 0.483 | 0.782 | 0.568 | 0.532
SW 900 | 0.543 | 0.602 | 0.504 | 0.52 | 0.331 |  |  |  |  |  | 0.581 | 0.592 | 0.617 | 0.402 | 0.246 | 0.176 | 0.167 | 0.18 | 0.184 | 0.167
PC-3 [JPC-3] | 0.71 | 0.65 | 0.737 | 0.585 | 0.732 | 0.883 | 0.928 | 0.961 | 0.908 | 0.945 | 0.481 | 0.48 | 0.521 | 0.5 | 0.488 | 0.617 | 0.741 | 0.676 | 0.695 | 0.715
NCI-H1648 | 0.239 |  | 0.308 | 0.262 | 0.23 |  |  |  |  |  |  |  |  |  |  |  |  |  |  | 
A549 |  |  |  |  |  | 0.559 |  | 0.733 | 0.442 | 0.578 | 0.146 | 0.156 | 0.0648 | 0.0756 | 0.103 |  |  |  |  | 
A-427 | 0.536 |  | 0.439 | 0.396 | 0.198 | 1.07 |  | 1.14 | 1.11 | 0.94 | 0.406 |  | 0.219 | 0.218 | 0.138 | 0.819 | 0.895 | 0.913 | 0.879 | 0.818
NCI-H1975 | 0.692 | 0.677 | 0.46 | 0.675 | 0.681 | 0.871 | 0.934 |  | 0.982 | 1.17 | 0.415 | 0.417 | 0.288 | 0.36 | 0.428 | 0.215 | 0.173 | 0.162 | 0.204 | 0.257
LU99A | 0.267 | 0.323 |  | 0.248 | 0.236 | 0.515 | 0.53 | 0.565 | 0.404 | 0.457 | 0.866 | 0.671 |  | 0.757 | 0.554 | 0.247 | 0.236 | 0.327 | 0.262 | 0.477
NCI-H1755 | 0.623 | 0.468 | 0.571 | 0.553 | 0.509 | 0.958 | 0.561 | 0.962 | 0.858 | 0.959 | 0.606 | 0.5 | 0.367 | 0.49 | 0.56 | 0.415 | 0.365 | 0.537 | 0.966 | 0.696
LOU-NH91 | 0.749 | 0.721 | 0.56 | 0.69 | 0.792 | 1 | 0.928 | 0.804 | 0.817 | 1 | 0.716 | 0.69 | 0.561 | 0.647 | 0.802 | 0.351 | 0.405 | 0.374 | 0.377 | 0.385
